Tested on: SARS-CoV-2
Assay: Functional immunofluorescence assay to measure dose dependent changes in antiviral-drug inhibitory efficacy against hCoV-19/USA-WA1/2020 in HeLa-ACE2 cells which are seeded prior to drug treatment, then infected with hCoV-19/USA-WA1/2020. Cells are fixed with 10 % formaldehyde, washed with PBS, permeabilized with permeabilization buffer, then washed with wash buffer. The cells are incubated with nucleoprotein primary antibody IC7C7. Following primary staining, cells are washed with wash buffer and incubated in a solution of with Alexa fluor 488 and DAPI. Infected and uninfected cells are visualized and analyzed by Gen5 software. The assay has been performed by Icahn School of Medicine at Mount Sinai.
Type: organism-based, Homo sapiens
Details: for EC50: Severe acute respiratory syndrome coronavirus 2, HeLa-ACE2

SMILES	EC50 [µM]	also measured
CCNC(=O)c1cc2c(N[C@@H](c3ccc4c(c3)S(=O)(=O)CCO4)C(C)C)ncnc2[nH]1	> 20	EC90 (Severe acute respiratory syndrome coronavirus 2, HeLa-ACE2, Baseline response 0 %, Hill slope -0.398, Maximum measured 111.753 %, Maximum response 100 %, Minimum measured 79.377 %, R squared 0.175): > 20 µM
Cc1nn(C)cc1-c1cc2c(N[C@@H](c3ccc4c(c3)S(=O)(=O)CCC4)C(C)C)ncnc2[nH]1	> 20	EC90 (Severe acute respiratory syndrome coronavirus 2, HeLa-ACE2, Maximum measured 131.643 %, Minimum measured 93.649 %): > 20 µM
CCNC(=O)c1cc2c(N[C@@H](c3ccc4c(c3)S(=O)(=O)CCC4)C(C)C)ncnc2[nH]1	> 20	EC90 (Severe acute respiratory syndrome coronavirus 2, HeLa-ACE2, Baseline response 0 %, Hill slope -4.495, Maximum measured 108.517 %, Maximum response 100 %, Minimum measured 90.612 %, R squared 0.096): > 20 µM
CNC(=O)c1cccc(-c2cc3c(N[C@@H](c4ccc5c(c4)S(=O)(=O)CCC5)C(C)C)ncnc3[nH]2)c1	> 20	EC90 (Severe acute respiratory syndrome coronavirus 2, HeLa-ACE2, Baseline response 0 %, Hill slope -1.505, Maximum measured 108.746 %, Maximum response 100 %, Minimum measured 56.34 %, R squared 0.642): > 20 µM
CC(C)[C@@H](Nc1ncnc2[nH]c(-c3cnn(C)c3)cc12)c1ccc2c(c1)S(=O)(=O)NCC2	> 20	EC90 (Severe acute respiratory syndrome coronavirus 2, HeLa-ACE2, Baseline response 0 %, Hill slope -6.715, Maximum measured 105.419 %, Maximum response 100 %, Minimum measured 69.993 %, R squared 0.42): > 20 µM
CC(C)[C@H](Nc1ncnc2[nH]c(-c3cnn(C)c3C#N)cc12)c1ccc2c(c1)S(=O)(=O)CCC2	6.21	EC90 (Severe acute respiratory syndrome coronavirus 2, HeLa-ACE2, Baseline response 0 %, Hill slope -14.93, Maximum measured 129.006 %, Maximum response 100 %, Minimum measured 5.734 %, R squared 0.877): 7.19 µM
CC(C)(C)[C@H](Nc1ncnc2[nH]c(-c3cnn(CC(N)=O)c3)cc12)c1ccc2c(c1)OCCO2	> 20	EC90 (Severe acute respiratory syndrome coronavirus 2, HeLa-ACE2, Baseline response 0 %, Hill slope -0.655, Maximum measured 108.484 %, Maximum response 100 %, Minimum measured 91.129 %, R squared 0.123): > 20 µM
CNCc1cc(-c2cc3c(N[C@H](c4ccc5c(c4)S(=O)(=O)CCC5)C(C)C)ncnc3[nH]2)co1	11.1	EC90 (Severe acute respiratory syndrome coronavirus 2, HeLa-ACE2, Baseline response 0 %, Hill slope -0.715, Maximum measured 94.818 %, Maximum response 100 %, Minimum measured 27.713 %, R squared 0.683): > 20 µM
CC(C)[C@H](Nc1ncnc2[nH]c(-c3cnn(C)c3C#N)cc12)c1ccc2c(n1)NC(=O)CO2	0.858	EC90 (Severe acute respiratory syndrome coronavirus 2, HeLa-ACE2, Baseline response 0 %, Hill slope -0.619, Maximum measured 70.604 %, Maximum response 100 %, Minimum measured 3.388 %, R squared 0.805): > 20 µM
CC(C)[C@@H](Nc1ncnc2[nH]ccc12)c1ccc2c(c1)S(=O)(=O)CCO2	> 20	EC90 (Severe acute respiratory syndrome coronavirus 2, HeLa-ACE2, Baseline response 0 %, Hill slope -0.245, Maximum measured 99.283 %, Maximum response 100 %, Minimum measured 83.757 %, R squared 0.186): > 20 µM
COc1ccc([C@@H](Cc2nnn[nH]2)NC(=O)c2ncnc3[nH]ccc23)cc1	> 20	EC90 (Severe acute respiratory syndrome coronavirus 2, HeLa-ACE2, Maximum measured 136.92 %, Minimum measured 93.837 %): > 20 µM
CC(C)[C@H](Nc1ncnc2[nH]c(-c3cnn(C)c3C#N)cc12)c1ccc2c(c1)NC(=O)CO2	1.33	EC90 (Severe acute respiratory syndrome coronavirus 2, HeLa-ACE2, Baseline response 0 %, Hill slope -0.558, Maximum measured 72.17 %, Maximum response 100 %, Minimum measured 6.652 %, R squared 0.72): > 20 µM
CCNC(=O)c1cc2c(N[C@@H](c3ccc4c(c3)S(=O)(=O)NCC4)C(C)C)ncnc2[nH]1	> 20	EC90 (Severe acute respiratory syndrome coronavirus 2, HeLa-ACE2, Maximum measured 101.15 %, Minimum measured 78.382 %): > 20 µM
CC(C)[C@H](Nc1ncnc2[nH]c(-c3cnn(C)c3)cc12)c1ccc2c(c1)S(=O)(=O)CCC2	> 20	EC90 (Severe acute respiratory syndrome coronavirus 2, HeLa-ACE2, Baseline response 0 %, Hill slope -1.829, Maximum measured 111.115 %, Maximum response 100 %, Minimum measured 52.798 %, R squared 0.593): > 20 µM

Source: ChEMBL document CHEMBL5441381, “ASAP - In vitro antiviral effect” (2024)
